PubChem BioAssay AID330 (DTP/NCI, 2004)
Values joined by “and” are separate entries in the source; they are usually repeats but may differ in a detail not shown here. Identical values can stand only once. Toxic doses and inconclusive results are not listed.

Tested on: P388 leukemia ip, CD2F1 mice, survival T/C
Test: NCI In Vivo Anticancer Drug Screen. Data for tumor model P388 Leukemia (intraperitoneal) in CD2F1 (CDF1) mice
Conditions: endpoint: median survival time, higher = longer survival
In short: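 Mice carrying the transplanted tumor received test compound or vehicle. Survival was recorded in each group, and the value is the treated-group measurement divided by that of the vehicle-treated control group.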

[1] = dose: 50.0 mg/kg/injection, schedule: Q01DX009 (ip), vehicle: saline
[2] = dose: 100.0 mg/kg/injection, schedule: Q01DX009 (ip), vehicle: saline
[3] = dose: 200.0 mg/kg/injection, schedule: Q01DX009 (ip), vehicle: saline
[4] = dose: 50.0 mg/kg/injection, schedule: Q01DX009 (ip), vehicle: saline with Tween-80
[5] = dose: 60.0 mg/kg/injection, schedule: Q01DX005 (ip), vehicle: Klucel (hydroxypropylcellulose) (HPC)
[6] = dose: 120.0 mg/kg/injection, schedule: Q01DX005 (ip), vehicle: Klucel (hydroxypropylcellulose) (HPC)
[7] = dose: 50.0 mg/kg/injection, schedule: Q01DX005 (ip), vehicle: saline
[8] = dose: 100.0 mg/kg/injection, schedule: Q01DX005 (ip), vehicle: saline
[9] = dose: 200.0 mg/kg/injection, schedule: Q01DX005 (ip), vehicle: saline

Cc1cccc(Nc2nnc3nc(-c4ccccc4)c(-c4ccccc4)nn23)c1
T/C (dose: 25.0 mg/kg/injection, schedule: Q01DX001 (ip), vehicle: saline with Tween-80): 94 % of control | T/C (dose: 50.0 mg/kg/injection, schedule: Q01DX001 (ip), vehicle: saline with Tween-80): 100 % of control | T/C (dose: 100.0 mg/kg/injection, schedule: Q01DX001 (ip), vehicle: saline with Tween-80): 91 % of control and 95 % of control

C=CCc1cccc2cc(C(=O)OCCCN(CC)CC)c(=O)oc12
T/C (dose: 50.0 mg/kg/injection, schedule: Q01DX005 (ip), vehicle: saline with Tween-80): 95 % of control | T/C (dose: 100.0 mg/kg/injection, schedule: Q01DX005 (ip), vehicle: saline with Tween-80): 99 % of control

CCOc1cc2c(NCCCN(CCO)CCO)ncnc2c(OCC)c1OCC
T/C [1]: 101 % of control | T/C [2]: 111 % of control | T/C [3]: 101 % of control

CC(=NC(C)C)N1CCCCC1
T/C [1]: 101 % of control | T/C [2]: 101 % of control

S=C(Nc1cc(Cl)cc(Cl)c1)SCc1ccccc1
T/C [1]: 100 % of control | T/C [2]: 99 % of control | T/C [3]: 107 % of control

Cc1ccc(S(=O)c2ccccc2)c(C(O)(C(F)(F)F)C(F)(F)F)c1 (configuration not stated)
T/C (dose: 100.0 mg/kg/injection, schedule: Q04DX003 (ip), vehicle: Klucel (hydroxypropylcellulose) (HPC)): 91 % of control | T/C (dose: 200.0 mg/kg/injection, schedule: Q04DX003 (ip), vehicle: Klucel (hydroxypropylcellulose) (HPC)): 93 % of control | T/C (dose: 400.0 mg/kg/injection, schedule: Q04DX003 (ip), vehicle: Klucel (hydroxypropylcellulose) (HPC)): 94 % of control

O=C(NNc1ccc([N+](=O)[O-])cc1[N+](=O)[O-])Nc1cccc(Cl)c1
T/C [4]: 91 % of control | T/C (dose: 100.0 mg/kg/injection, schedule: Q01DX009 (ip), vehicle: saline with Tween-80): 99 % of control | T/C (dose: 200.0 mg/kg/injection, schedule: Q01DX009 (ip), vehicle: saline with Tween-80): 102 % of control

O=C1CCC2(CC(Br)C(=O)c3ccccc32)C(=O)N1 (configuration not stated)
T/C [5]: 113 % of control | T/C [6]: 113 % of control

Nc1nc2c(c(=O)[nH]1)N(C(=O)CCl)C(CNc1ccc(C(=O)NC(CCC(=O)O)C(=O)O)cc1)CN2 (configuration not stated)
T/C (dose: 50.0 mg/kg/injection, schedule: Q01DX009 (ip), vehicle: water): 99 % of control | T/C (dose: 100.0 mg/kg/injection, schedule: Q01DX009 (ip), vehicle: water): 103 % of control | T/C (dose: 200.0 mg/kg/injection, schedule: Q01DX009 (ip), vehicle: water): 101 % of control

CN1C(=O)N(C)[C@@H]2CC(=O)c3ccc(C(F)(F)F)cc3N2C1=O
T/C [5]: 101 % of control | T/C [6]: 107 % of control | T/C (dose: 240.0 mg/kg/injection, schedule: Q01DX005 (ip), vehicle: Klucel (hydroxypropylcellulose) (HPC)): 103 % of control

O=C(NP(=O)(O)NC(Cc1ccccc1)C(=O)O)OCc1ccccc1 (configuration not stated)
T/C [7]: 106 % of control | T/C [8]: 109 % of control | T/C [9]: 102 % of control

C=C1COC(=O)C12CC1CCCC(C)C1(C)C2 (configuration not stated)
T/C (dose: 4.0 mg/kg/injection, schedule: Q01DX009 (ip), vehicle: Klucel (hydroxypropylcellulose) (HPC)): 93 % of control | T/C (dose: 8.0 mg/kg/injection, schedule: Q01DX009 (ip), vehicle: Klucel (hydroxypropylcellulose) (HPC)): 96 % of control | T/C (dose: 16.0 mg/kg/injection, schedule: Q01DX009 (ip), vehicle: Klucel (hydroxypropylcellulose) (HPC)): 94 % of control | T/C (dose: 32.0 mg/kg/injection, schedule: Q01DX009 (ip), vehicle: Klucel (hydroxypropylcellulose) (HPC)): 102 % of control

CCCCN(CCCC)C(=N)c1cc(OC)ccc1OC
T/C (dose: 3.12 mg/kg/injection, schedule: Q01DX005 (ip), vehicle: saline): 101 % of control | T/C (dose: 6.25 mg/kg/injection, schedule: Q01DX005 (ip), vehicle: saline): 100 % of control

CCOCC[Si]12OCCN(CCO1)CCO2
T/C (dose: 50.0 mg/kg/injection, schedule: Q01DX005 (ip), vehicle: Klucel (hydroxypropylcellulose) (HPC)): 97 % of control | T/C (dose: 100.0 mg/kg/injection, schedule: Q01DX005 (ip), vehicle: Klucel (hydroxypropylcellulose) (HPC)): 101 % of control | T/C (dose: 200.0 mg/kg/injection, schedule: Q01DX005 (ip), vehicle: Klucel (hydroxypropylcellulose) (HPC)): 90 % of control

CCOP(=O)(O)SP(=O)(O)OCC.[Zn+2]
T/C (dose: 25.0 mg/kg/injection, schedule: Q01DX009 (ip), vehicle: saline with Tween-80): 109 % of control | T/C [4]: 103 % of control and 115 % of control

C[C@H]1C(=O)N(C)C(=O)[C@@H]1N
T/C [7]: 97 % of control | T/C [8]: 97 % of control | T/C [9]: 95 % of control

Cc1ccc(N)c(S)c1
T/C (dose: 12.5 mg/kg/injection, schedule: Q01DX009 (ip), vehicle: Klucel (hydroxypropylcellulose) (HPC)): 98 % of control | T/C (dose: 25.0 mg/kg/injection, schedule: Q01DX009 (ip), vehicle: Klucel (hydroxypropylcellulose) (HPC)): 120 % of control | T/C (dose: 50.0 mg/kg/injection, schedule: Q01DX009 (ip), vehicle: Klucel (hydroxypropylcellulose) (HPC)): 117 % of control
